Data reported in PubChem BioAssay AID2060906 (Molecular Pharmacology Branch, DTP, NCI, 2025).
Blank lines part the entries; values can stand above or below the compound they belong to.

Tested on: 485176-168-R4-J1-PDC complex spheroid growth
Test: Anticancer human tumor 485176-168-R4-J1-PDC patient-derived pancreatic adenocarcinoma cell line growth inhibition [RAS]
Details: for IC50: curve of first compound; for viability, T/C: stronger effect = lower value
In short: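 Agents were tested in combination matrices in half-log decrements from a top concentration at or near clinical Cmax (10 microM if undetermined). Targets were multi-cell spheroids of tumour lines plus HUVEC and MSC stromal cells.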

[1] = second compound 0.000949 µM, first compound 0.0316 µM
[2] = second compound 0.000949 µM, first compound 0.1 µM
[3] = second compound 0.000949 µM, first compound 0.316 µM
[4] = second compound 0.000949 µM, first compound 1 µM
[5] = second compound 0.000949 µM, first compound 3.16 µM
[6] = second compound 0.000949 µM, first compound 10 µM
[7] = second compound 0.003 µM, first compound 0.0316 µM
[8] = second compound 0.003 µM, first compound 0.1 µM
[9] = second compound 0.003 µM, first compound 0.316 µM
[10] = second compound 0.003 µM, first compound 1 µM
[11] = second compound 0.003 µM, first compound 3.16 µM
[12] = second compound 0.003 µM, first compound 10 µM
[13] = second compound 0.00949 µM, first compound 0.0316 µM
[14] = second compound 0.00949 µM, first compound 0.1 µM
[15] = second compound 0.00949 µM, first compound 0.316 µM
[16] = second compound 0.00949 µM, first compound 1 µM
[17] = second compound 0.00949 µM, first compound 3.16 µM
[18] = second compound 0.00949 µM, first compound 10 µM
[19] = second compound 0.03 µM, first compound 0.0316 µM
[20] = second compound 0.03 µM, first compound 0.1 µM
[21] = second compound 0.03 µM, first compound 0.316 µM
[22] = second compound 0.03 µM, first compound 1 µM
[23] = second compound 0.03 µM, first compound 3.16 µM
[24] = second compound 0.03 µM, first compound 10 µM
[25] = second compound 0.0949 µM, first compound 0.0316 µM
[26] = second compound 0.0949 µM, first compound 0.1 µM
[27] = second compound 0.0949 µM, first compound 0.316 µM
[28] = second compound 0.0949 µM, first compound 1 µM
[29] = second compound 0.0949 µM, first compound 3.16 µM
[30] = second compound 0.0949 µM, first compound 10 µM
[31] = second compound 0.3 µM, first compound 0.0316 µM
[32] = second compound 0.3 µM, first compound 0.1 µM
[33] = second compound 0.3 µM, first compound 0.316 µM
[34] = second compound 0.3 µM, first compound 1 µM
[35] = second compound 0.3 µM, first compound 3.16 µM
[36] = second compound 0.3 µM, first compound 10 µM
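Note: spheroids exposed to compounds for seven days before readout.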
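Throughout, for viability, T/C: luminescence viability expressed relative to DMSO vehicle wells set as 100%.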

IC50 (second compound 0.000949 µM): < 31.6 nM | IC50 (second compound 0.003 µM): < 31.6 nM | IC50 (second compound 0.00949 µM): < 31.6 nM | IC50 (second compound 0.03 µM): < 31.6 nM | IC50 (second compound 0.0949 µM): < 31.6 nM | IC50 (second compound 0.3 µM): < 31.6 nM
SMILES: CC(=O)OC12COC1CC(O)C1(C)C(=O)C(O)C3=C(C)C(OC(=O)C(O)C(NC(=O)OC(C)(C)C)c4ccccc4)CC(O)(C(OC(=O)c4ccccc4)C21)C3(C)C (centres undefined) + CCn1c(-c2cc(N3CCN(C)CC3)cnc2C(C)OC)c2c3cc(ccc31)-c1csc(n1)CC(NC(=O)C1CC1C)C(=O)N1CCCC(N1)C(=O)OCC(C)(C)C2
viability, T/C [1]: 16.7% | viability, T/C [2]: 15.2% | viability, T/C [3]: 13.1% | viability, T/C [4]: 13.9% | viability, T/C [5]: 15.6% | viability, T/C [6]: 19.6% | viability, T/C [7]: 14.1% | viability, T/C [8]: 13.2% | viability, T/C [9]: 10.9% | viability, T/C [10]: 15.5% | viability, T/C [11]: 13.1% | viability, T/C [12]: 17.9% | viability, T/C [13]: 17.2% | viability, T/C [14]: 12.8% | viability, T/C [15]: 12.7% | viability, T/C [16]: 12.8% | viability, T/C [17]: 13.2% | viability, T/C [18]: 20.1% | viability, T/C [19]: 12.3% | viability, T/C [20]: 13.4% | viability, T/C [21]: 13.8% | viability, T/C [22]: 10.8% | viability, T/C [23]: 16.5% | viability, T/C [24]: 21% | viability, T/C [25]: 14.2% | viability, T/C [26]: 11.9% | viability, T/C [27]: 11.8% | viability, T/C [28]: 9.97% | viability, T/C [29]: 14.9% | viability, T/C [30]: 15.9% | viability, T/C [31]: 15.5% | viability, T/C [32]: 13.1% | viability, T/C [33]: 9.69% | viability, T/C [34]: 12.8% | viability, T/C [35]: 15.8% | viability, T/C [36]: 14.7%

IC50 (second compound 0.000949 µM): 1130 nM | IC50 (second compound 0.003 µM): 1260 nM | IC50 (second compound 0.00949 µM): 1070 nM | IC50 (second compound 0.03 µM): 925 nM | IC50 (second compound 0.0949 µM): 1040 nM | IC50 (second compound 0.3 µM): 1000 nM
SMILES: CCC(CC)c1cc(NC2CCC(N)C2)n2nccc2n1 (centres undefined) + CCn1c(-c2cc(N3CCN(C)CC3)cnc2C(C)OC)c2c3cc(ccc31)-c1csc(n1)CC(NC(=O)C1CC1C)C(=O)N1CCCC(N1)C(=O)OCC(C)(C)C2
viability, T/C [1]: 92.1% | viability, T/C [2]: 83.7% | viability, T/C [3]: 84.7% | viability, T/C [4]: 55.9% | viability, T/C [5]: 1.96% | viability, T/C [6]: 0.46% | viability, T/C [7]: 94.5% | viability, T/C [8]: 94.3% | viability, T/C [9]: 100% | viability, T/C [10]: 62.4% | viability, T/C [11]: 1.91% | viability, T/C [12]: 0.43% | viability, T/C [13]: 106% | viability, T/C [14]: 78.7% | viability, T/C [15]: 89.1% | viability, T/C [16]: 53.4% | viability, T/C [17]: 1.09% | viability, T/C [18]: 0.36% | viability, T/C [19]: 83.6% | viability, T/C [20]: 84.1% | viability, T/C [21]: 82.8% | viability, T/C [22]: 47.6% | viability, T/C [23]: 1.14% | viability, T/C [24]: 0.38% | viability, T/C [25]: 77.5% | viability, T/C [26]: 89% | viability, T/C [27]: 68.5% | viability, T/C [28]: 53% | viability, T/C [29]: 0.88% | viability, T/C [30]: 0.45% | viability, T/C [31]: 81.4% | viability, T/C [32]: 70% | viability, T/C [33]: 71.7% | viability, T/C [34]: 50.1% | viability, T/C [35]: 0.86% | viability, T/C [36]: 0.45%
